Laboratory results taken from ChEMBL document CHEMBL5352475, “Design, synthesis, and biological evaluation of novel glutaminase 1 allosteric inhibitors with an alkane chain tail group” (Eur J Med Chem, 2023).
One block for each compound: values may come before it.

Tests used:
[1] = Toxicity in BALB/c nude mouse xenografted with human HCT-116 cells assessed as proliferation of hepatocyte in liver at 100 mg/kg, ip upto 20 days; assay type: organism-based; details: in vivo, 480 h, time < 20 day
[2] = Toxicity in BALB/c nude mouse xenografted with human HCT-116 cells assessed as partial pyknosis of nuclei in liver at 100 mg/kg, ip upto 20 days; assay type: organism-based; details: in vivo, 480 h, time < 20 day
[3] = Metabolic stability in human liver microsomes assessed as half life by LC-MS/MS analysis; assay type: ADME, Microsome
[4] = Toxicity in BALB/c nude mouse xenografted with human HCT-116 cells assessed as hyperplasia of renal tubular epithelium in kidney at 100 mg/kg, ip upto 20 days; assay type: organism-based; details: in vivo, 480 h, time < 20 day
[5] = test system: HCT-116; assay: cells; details: Homo sapiens, HCT-116, 72 h
Description: Antiproliferative activity against human HCT-116 cells incubated for 72 hrs by MTT assay

[6] = test system: HCT-116; assay: Antitumor activity against human HCT-116 cells xenografted in BALB/c nude mouse assessed as tumor growth inhibition at 100 mg/kg, ip for 20 days relative to control; assay type: functional; details: time 20 day
[7] = Toxicity in BALB/c nude mouse xenografted with human HCT-116 cells assessed as cytoplasmic acidophilia in liver at 100 mg/kg, ip upto 20 days; assay type: organism-based; details: in vivo, 480 h, time < 20 day
[8] = Toxicity in BALB/c nude mouse xenografted with human HCT-116 cells assessed as degeneration of hepatocyte in liver at 100 mg/kg, ip upto 20 days; assay type: organism-based; details: in vivo, 480 h, time < 20 day
[9] = Metabolic stability in human liver microsomes assessed as clearance measured upto 120 mins by LC-MS/MS analysis; assay type: ADME, Microsome; details: read-out: CLH
[10] = Toxicity in BALB/c nude mouse xenografted with human HCT-116 cells assessed as prominent of nucleolus in liver at 100 mg/kg, ip upto 20 days; assay type: organism-based; details: in vivo, 480 h, time < 20 day
[11] = Toxicity in BALB/c nude mouse xenografted with human HCT-116 cells assessed as as body weight loss at 100 mg/kg, ip upto 20 days; assay type: organism-based; details: in vivo, 480 h, time < 20 day
[12] = Toxicity in BALB/c nude mouse xenografted with human HCT-116 cells assessed as obvious tissue lesion in heart at 100 mg/kg, ip upto 20 days; assay type: organism-based; details: in vivo, 480 h, time < 20 day
[13] = Toxicity in BALB/c nude mouse xenografted with human HCT-116 cells assessed as change in cell morphology in heart at 100 mg/kg, ip upto 20 days; assay type: organism-based; details: in vivo, 480 h, time < 20 day
[14] = test system: HCT-116; assay: Induction of apoptosis in human HCT-116 cells assessed as early apoptotic cells at 1 uM measured after 24 hrs by FITC annexin-V/PI staining based flow cytometric analysis (reference value: 3.73%); assay type: functional
[15] = Toxicity in BALB/c nude mouse xenografted with human HCT-116 cells assessed as obvious tissue lesion in lung at 100 mg/kg, ip upto 20 days; assay type: organism-based; details: in vivo, 480 h, time < 20 day
[16] = test system: HCT-116; assay: Induction of apoptosis in human HCT-116 cells assessed as early apoptotic cells at 3 uM measured after 24 hrs by FITC annexin-V/PI staining based flow cytometric analysis (reference value: 3.73%); assay type: functional
[17] = Toxicity in BALB/c nude mouse xenografted with human HCT-116 cells assessed as change in cell morphology in liver at 100 mg/kg, ip upto 20 days; assay type: organism-based; details: in vivo, 480 h, time < 20 day
[18] = Toxicity in BALB/c nude mouse xenografted with human HCT-116 cells assessed as obvious tissue lesion in spleen at 100 mg/kg, ip upto 20 days; assay type: organism-based; details: in vivo, 480 h, time < 20 day
[19] = Toxicity in BALB/c nude mouse xenografted with human HCT-116 cells assessed as change in cell structure in spleen at 100 mg/kg, ip upto 20 days; assay type: organism-based; details: in vivo, 480 h, time < 20 day
[20] = test system: HCT-116; assay: Induction of apoptosis in human HCT-116 cells assessed as late apoptotic cells at 0.3 uM measured after 24 hrs by FITC annexin-V/PI staining based flow cytometric analysis (reference value: 5.41%); assay type: functional
[21] = Toxicity in BALB/c nude mouse xenografted with human HCT-116 cells assessed as change in cell morphology in lung at 100 mg/kg, ip upto 20 days; assay type: organism-based; details: in vivo, 480 h, time < 20 day
[22] = Toxicity in BALB/c nude mouse xenografted with human HCT-116 cells assessed as change in cell structure in kidney at 100 mg/kg, ip upto 20 days; assay type: organism-based; details: in vivo, 480 h, time < 20 day
[23] = test system: HCT-116; assay: Induction of apoptosis in human HCT-116 cells assessed as late apoptotic cells at 1 uM measured after 24 hrs by FITC annexin-V/PI staining based flow cytometric analysis (reference value: 5.41%); assay type: functional
[24] = Toxicity in BALB/c nude mouse xenografted with human HCT-116 cells assessed as obvious tissue lesion in liver at 100 mg/kg, ip upto 20 days; assay type: organism-based; details: in vivo, 480 h, time < 20 day
[25] = Toxicity in BALB/c nude mouse xenografted with human HCT-116 cells assessed as change in cell structure in liver at 100 mg/kg, ip upto 20 days; assay type: organism-based; details: in vivo, 480 h, time < 20 day
[26] = test system: HCT-116; assay: Induction of apoptosis in human HCT-116 cells assessed as total apoptotic cells at 10 uM measured after 24 hrs by FITC annexin-V/PI staining based flow cytometric analysis relative to control; assay type: functional
[27] = test system: HCT-116; assay: Induction of apoptosis in human HCT-116 cells assessed as late apoptotic cells at 3 uM measured after 24 hrs by FITC annexin-V/PI staining based flow cytometric analysis (reference value: 5.41%); assay type: functional
[28] = Toxicity in BALB/c nude mouse xenografted with human HCT-116 cells assessed as change in cell structure in lung at 100 mg/kg, ip upto 20 days; assay type: organism-based; details: in vivo, 480 h, time < 20 day
[29] = Toxicity in BALB/c nude mouse xenografted with human HCT-116 cells assessed as change in cell morphology in spleen at 100 mg/kg, ip upto 20 days; assay type: organism-based; details: in vivo, 480 h, time < 20 day
[30] = molecular target: T1, Glutaminase kidney isoform, mitochondrial (Homo sapiens) (UniProt O94925)
T1 sequence (whole entry): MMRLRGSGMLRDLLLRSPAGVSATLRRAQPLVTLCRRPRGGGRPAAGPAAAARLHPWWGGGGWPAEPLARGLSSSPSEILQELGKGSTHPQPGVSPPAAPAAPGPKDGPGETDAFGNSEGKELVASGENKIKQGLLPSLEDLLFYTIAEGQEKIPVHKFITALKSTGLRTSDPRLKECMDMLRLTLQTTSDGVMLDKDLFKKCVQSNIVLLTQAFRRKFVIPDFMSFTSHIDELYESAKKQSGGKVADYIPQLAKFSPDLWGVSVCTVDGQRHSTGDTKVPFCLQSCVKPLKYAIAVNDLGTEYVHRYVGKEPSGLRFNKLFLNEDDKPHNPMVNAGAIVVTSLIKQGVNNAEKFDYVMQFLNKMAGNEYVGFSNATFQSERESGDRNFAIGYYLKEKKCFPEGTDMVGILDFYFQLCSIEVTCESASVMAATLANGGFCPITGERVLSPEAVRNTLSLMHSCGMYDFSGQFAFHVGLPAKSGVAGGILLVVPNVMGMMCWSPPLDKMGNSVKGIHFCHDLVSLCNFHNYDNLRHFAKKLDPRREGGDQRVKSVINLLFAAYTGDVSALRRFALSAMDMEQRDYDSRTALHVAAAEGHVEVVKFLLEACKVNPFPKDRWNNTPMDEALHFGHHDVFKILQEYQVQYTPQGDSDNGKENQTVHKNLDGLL
Description: Stabilization of GLS1 (unknown origin) assessed as change in melting temperature by protein thermal assay

[31] = test system: HCT-116; assay: Antiproliferative activity against human HCT-116 cells in presence of alpha-ketoglutarate; assay type: functional, cell-based
[32] = test system: HCT-116; assay: Induction of apoptosis in human HCT-116 cells assessed as early apoptotic cells at 0.1 uM measured after 24 hrs by FITC annexin-V/PI staining based flow cytometric analysis (reference value: 3.73%); assay type: functional
[33] = Toxicity in BALB/c nude mouse xenografted with human HCT-116 cells assessed as change in cell morphology in kidney at 100 mg/kg, ip upto 20 days; assay type: organism-based; details: in vivo, 480 h, time < 20 day
[34] = test system: HCT-116; assay: Induction of apoptosis in human HCT-116 cells assessed as late apoptotic cells at 0.1 uM measured after 24 hrs by FITC annexin-V/PI staining based flow cytometric analysis (reference value: 5.41%); assay type: functional
[35] = Toxicity in BALB/c nude mouse xenografted with human HCT-116 cells assessed as change in cell structure in heart at 100 mg/kg, ip upto 20 days; assay type: organism-based; details: in vivo, 480 h, time < 20 day
[36] = test system: HCT-116; assay: Induction of apoptosis in human HCT-116 cells assessed as early apoptotic cells at 0.3 uM measured after 24 hrs by FITC annexin-V/PI staining based flow cytometric analysis (reference value: 3.73%); assay type: functional
[37] = Toxicity in BALB/c nude mouse xenografted with human HCT-116 cells assessed as obvious tissue lesion in kidney at 100 mg/kg, ip upto 20 days; assay type: organism-based; details: in vivo, 480 h, time < 20 day
[38] = test system: HCT-116; assay: Induction of apoptosis in human HCT-116 cells assessed as early apoptotic cells at 10 uM measured after 24 hrs by FITC annexin-V/PI staining based flow cytometric analysis (reference value: 3.73%); assay type: functional
[39] = molecular target: T2, Glutaminase kidney isoform, mitochondrial (Homo sapiens, UniProt O94925); assay: Inhibition of GLS1 (unknown origin) preincubated for 10 mins followed by glutamine addition measured after 60 mins
T2 sequence (O94925 whole entry): T1 sequence (whole entry)

[40] = test system: HCT-116; assay: Induction of apoptosis in human HCT-116 cells assessed as late apoptotic cells at 10 uM measured after 24 hrs by FITC annexin-V/PI staining based flow cytometric analysis (reference value: 5.41%); assay type: functional

half-life [3]: 1.65 h
IC50 [5]: 560 nM
microsomal CLint [9]: 35 µL/min/mg
Structure (SMILES): O=C(Cc1cccc(OC(F)(F)F)c1)Nc1ccc(CCCCc2nnc(NC(=O)Cc3ccccn3)s2)nn1
Activity [1]: Toxic
Activity [2]: Toxic
Activity [4]: Toxic
TGI [6]: 43.7%
Activity [7]: Toxic
Activity [8]: Toxic
Activity [10]: Toxic
Activity [11]: Non-Toxic

half-life [3]: 1.8 h
IC50 [5]: 61 nM
microsomal CLint [9]: 32 µL/min/mg
ΔTm [30]: 15.1 °C
IC50 [31]: 41500 nM
IC50 [39]: 7 nM
Structure (SMILES): CCCCOc1cccc(CC(=O)Nc2ccc(N3CCC(Nc4nnc(NC(=O)CCCC)s4)CC3)nn2)c1
Activity [12]: Non-Toxic
Activity [13]: Non-Toxic
Activity [14]: 5.84%
Activity [15]: Non-Toxic
Activity [16]: 6.54%
Activity [17]: Non-Toxic
Activity [18]: Non-Toxic
Activity [19]: Non-Toxic
Activity [20]: 9.88%
Activity [21]: Non-Toxic
Activity [22]: Non-Toxic
Activity [23]: 12.3%
TGI [6]: 38.9%
Activity [24]: Non-Toxic
Activity [25]: Non-Toxic
Activity [26]: ~30%
Activity [27]: 17.2%
Activity [28]: Non-Toxic
Activity [29]: Non-Toxic
Activity [32]: 4.9%
Activity [33]: Non-Toxic
Activity [34]: 7.63%
Activity [11]: Non-Toxic
Activity [35]: Non-Toxic
Activity [36]: 5.76%
Activity [37]: Non-Toxic
Activity [38]: 8.52%
Activity [40]: 20.5%
